Experimental data from patent US9162992B2, “Compounds and compositions for treatment of breathing control disorders or diseases” (GALLEON PHARMACEUTICALS, INC., priority 2010, dated 2015).

Experiments:
[1] = Stability across narrow pH 2-3.6 (1 mg/mL; 10 mM citric acid and glycine); type: physicochemical; design: Assay: unit not given here; settings: for Impurities: in %
Experimental: Buffer solutions containing ca. 10 mM each of citric acid and glycine in the pH range 2-3.6 were prepared by titrating 250 mL of a single stock containing both buffer agents with 1N NaOH/1N HCl and removing 50 mL aliquots at predetermined pH values. (XXXVI) solutions at 1 mg/mL were prepared in the buffers by dissolving ˜25 mg of (XXXVI) in ca. 23 mL of a given buffer, adjusting the pH to the target and making up the volume to 25.0 mL in a volumetric flask. Each of the buffered (XXXV) solutions was filtered through a 0.2 μm polyether sulfone syringe filter into a volumetric flask previously rinsed with 70% ethanol and dried in a laminar flow hood. Following filtration, each buffered (XXXV) solution was split into 9 aliquots in 5 mL serum vials previously rinsed with 70% ethanol and dried in a laminar flow hood. Filtration and preparation of aliquots were performed in a laminar flow hood. Of the nine aliquots, three aliquots were stored at each 40° C. and 60° C., two aliquots were stored at 25° C. and one aliquot was submitted for T0 testing. Samples were evaluated for pH, assay and related substances at T0 and, following 1 week, 2 weeks and 4 weeks of storage at 40° C. and 60° C. Samples stored at 25° C. served as controls to be analyzed if necessary

[2] = system: hypoxic ventilatory response; test: Hypoxic ventilatory response (HVR) in the rat, plethysmography; type: in vivo; settings: 0.03 mg/kg/min infusion 50 min; 12% O2 for 20 min; vs vehicle
Experimental: Rats with a pre-cannulated jugular vein (for administering drugs) were acclimated to plethysmography chambers for a minimum of 60 minutes, or until animals were no longer restless. Each animal was dosed with compound (XXXVI), labeled as cmpd (A), at 0.03 mg/kg/min via infusion into the jugular vein catheter for a period of 50 minutes. After a period of 20 minutes, an isocapnic hypoxic mixture (12% O2 balanced N2) was administered into all chambers using a gas mixer (CWE inc. GSM-3 gas mixer) for 20 minutes. After this time, the gas mixer was turned off, resulting in normal room air pumped into the chambers. Ten minutes later, the infusion pumps were turned off, and all animals were given a 20 minute recovery period, followed by a post-study analysis of rat health and behavior. […] Results are illustrated in FIG. 3.

CCCNc1nc(NCCC)nc(N(C)OC)n1 [XXXV, N-(4,6-Bis-n-propylamino-[1,3,5]triazin-2-yl)-N,O-dimethyl-hydroxylamine]
pH dependence of impurity levels ([1]; 40° C. and 60° C. storage, pH 2-3.6): impurity levels decreased significantly with increasing pH | impurity levels at pH 2 vs. impurity levels at pH 3.6 ([1]; pH range 2-3.6): ≥ 10 fold | Assay ([1]; target pH 2.0, 40° C. 1 wk): 0.959 | pH ([1]; target pH 2.0, 40° C. 1 wk): 2.00 | Impurities ([1]; target pH 2.0, 40° C. 1 wk): 0.99 | Assay ([1]; target pH 2.0, 40° C. 2 wk): 0.955 | pH ([1]; target pH 2.0, 40° C. 2 wk): 1.98 | Impurities ([1]; target pH 2.0, 40° C. 2 wk): 1.55 | Assay ([1]; target pH 2.0, 40° C. 4 wk): 0.956 | pH ([1]; target pH 2.0, 40° C. 4 wk): 1.98 | Impurities ([1]; target pH 2.0, 40° C. 4 wk): 2.84 | Assay ([1]; target pH 2.0, 60° C. 1 wk): 0.913 | pH ([1]; target pH 2.0, 60° C. 1 wk): 2.00 | Impurities ([1]; target pH 2.0, 60° C. 1 wk): 3.87 | Assay ([1]; target pH 2.0, 60° C. 2 wk): 0.851 | pH ([1]; target pH 2.0, 60° C. 2 wk): 1.97 | Impurities ([1]; target pH 2.0, 60° C. 2 wk): 7.56 | Assay ([1]; target pH 2.0, 60° C. 4 wk): 0.768 | pH ([1]; target pH 2.0, 60° C. 4 wk): 1.89 | Impurities ([1]; target pH 2.0, 60° C. 4 wk): 13.99 | Assay ([1]; target pH 2.0, initial): 0.981 | pH ([1]; target pH 2.0, initial): 2.00 | Impurities ([1]; target pH 2.0, initial): 0.14 | Assay ([1]; target pH 2.3, 40° C. 1 wk): 0.984 | pH ([1]; target pH 2.3, 40° C. 1 wk): 2.36 | Impurities ([1]; target pH 2.3, 40° C. 1 wk): 0.47 | Assay ([1]; target pH 2.3, 40° C. 2 wk): 0.993 | pH ([1]; target pH 2.3, 40° C. 2 wk): 2.32 | Impurities ([1]; target pH 2.3, 40° C. 2 wk): 0.63 | Assay ([1]; target pH 2.3, 40° C. 4 wk): 0.995 | pH ([1]; target pH 2.3, 40° C. 4 wk): 2.33 | Impurities ([1]; target pH 2.3, 40° C. 4 wk): 1.70 | Assay ([1]; target pH 2.3, 60° C. 1 wk): 0.961 | pH ([1]; target pH 2.3, 60° C. 1 wk): 2.36 | Impurities ([1]; target pH 2.3, 60° C. 1 wk): 1.81 | Assay ([1]; target pH 2.3, 60° C. 2 wk): 0.932 | pH ([1]; target pH 2.3, 60° C. 2 wk): 2.34 | Impurities ([1]; target pH 2.3, 60° C. 2 wk): 3.53 | Assay ([1]; target pH 2.3, 60° C. 4 wk): 0.916 | pH ([1]; target pH 2.3, 60° C. 4 wk): 2.28 | Impurities ([1]; target pH 2.3, 60° C. 4 wk): 6.30 | Assay ([1]; target pH 2.3, initial): 0.987 | pH ([1]; target pH 2.3, initial): 2.33 | Impurities ([1]; target pH 2.3, initial): 0.09 | Assay ([1]; target pH 2.7, 40° C. 1 wk): 0.981 | pH ([1]; target pH 2.7, 40° C. 1 wk): 2.73 | Impurities ([1]; target pH 2.7, 40° C. 1 wk): 0.22 | Assay ([1]; target pH 2.7, 40° C. 2 wk): 0.985 | pH ([1]; target pH 2.7, 40° C. 2 wk): 2.72 | Impurities ([1]; target pH 2.7, 40° C. 2 wk): 0.37 | Assay ([1]; target pH 2.7, 40° C. 4 wk): 1.019 | pH ([1]; target pH 2.7, 40° C. 4 wk): 2.73 | Impurities ([1]; target pH 2.7, 40° C. 4 wk): 0.61 | Assay ([1]; target pH 2.7, 60° C. 1 wk): 0.978 | pH ([1]; target pH 2.7, 60° C. 1 wk): 2.75 | Impurities ([1]; target pH 2.7, 60° C. 1 wk): 0.97 | Assay ([1]; target pH 2.7, 60° C. 2 wk): 1.144 | pH ([1]; target pH 2.7, 60° C. 2 wk): 2.74 | Impurities ([1]; target pH 2.7, 60° C. 2 wk): 1.76 | Assay ([1]; target pH 2.7, 60° C. 4 wk): 0.987 | pH ([1]; target pH 2.7, 60° C. 4 wk): 2.67 | Impurities ([1]; target pH 2.7, 60° C. 4 wk): 3.09 | Assay ([1]; target pH 2.7, initial): 0.987 | pH ([1]; target pH 2.7, initial): 2.72 | Assay ([1]; target pH 3.0, 40° C. 1 wk): 1.01 | pH ([1]; target pH 3.0, 40° C. 1 wk): 3.04 | Impurities ([1]; target pH 3.0, 40° C. 1 wk): 0.21 | Assay ([1]; target pH 3.0, 40° C. 2 wk): 0.987 | pH ([1]; target pH 3.0, 40° C. 2 wk): 3.05 | Impurities ([1]; target pH 3.0, 40° C. 2 wk): 0.34 | Assay ([1]; target pH 3.0, 40° C. 4 wk): 1.027 | pH ([1]; target pH 3.0, 40° C. 4 wk): 3.04 | Impurities ([1]; target pH 3.0, 40° C. 4 wk): 0.58 | Assay ([1]; target pH 3.0, 60° C. 1 wk): 0.991 | pH ([1]; target pH 3.0, 60° C. 1 wk): 3.05 | Impurities ([1]; target pH 3.0, 60° C. 1 wk): 0.61 | Assay ([1]; target pH 3.0, 60° C. 2 wk): 0.975 | Impurities ([1]; target pH 3.0, 60° C. 2 wk): 1.27 | Assay ([1]; target pH 3.0, 60° C. 4 wk): 0.987 | Impurities ([1]; target pH 3.0, 60° C. 4 wk): 1.82 | Assay ([1]; target pH 3.0, initial): 1.005 | pH ([1]; target pH 3.0, initial): 3.02 | Assay ([1]; target pH 3.3, 40° C. 1 wk): 1.02 | pH ([1]; target pH 3.3, 40° C. 1 wk): 3.35 | Assay ([1]; target pH 3.3, 40° C. 2 wk): 1.01 | pH ([1]; target pH 3.3, 40° C. 2 wk): 3.35 | Assay ([1]; target pH 3.3, 40° C. 4 wk): 1.047 | pH ([1]; target pH 3.3, 40° C. 4 wk): 3.34 | Impurities ([1]; target pH 3.3, 40° C. 4 wk): 0.25 | Assay ([1]; target pH 3.3, 60° C. 1 wk): 0.997 | pH ([1]; target pH 3.3, 60° C. 1 wk): 3.36 | Impurities ([1]; target pH 3.3, 60° C. 1 wk): 0.41 | Assay ([1]; target pH 3.3, 60° C. 2 wk): 0.995 | pH ([1]; target pH 3.3, 60° C. 2 wk): 3.37 | Impurities ([1]; target pH 3.3, 60° C. 2 wk): 0.69 | Assay ([1]; target pH 3.3, 60° C. 4 wk): 1.027 | pH ([1]; target pH 3.3, 60° C. 4 wk): 3.34 | Impurities ([1]; target pH 3.3, 60° C. 4 wk): 1.26 | Assay ([1]; target pH 3.3, initial): 1.019 | pH ([1]; target pH 3.3, initial): 3.31 | Assay ([1]; target pH 3.6, 40° C. 1 wk): 0.991 | pH ([1]; target pH 3.6, 40° C. 1 wk): 3.64 | Assay ([1]; target pH 3.6, 40° C. 2 wk): 0.985 | pH ([1]; target pH 3.6, 40° C. 2 wk): 3.70 | Assay ([1]; target pH 3.6, 40° C. 4 wk): 0.991 | pH ([1]; target pH 3.6, 40° C. 4 wk): 3.64 | Impurities ([1]; target pH 3.6, 40° C. 4 wk): 0.17 | Assay ([1]; target pH 3.6, 60° C. 1 wk): 0.979 | pH ([1]; target pH 3.6, 60° C. 1 wk): 3.65 | Impurities ([1]; target pH 3.6, 60° C. 1 wk): 0.36 | pH ([1]; target pH 3.6, 60° C. 2 wk): 3.70 | Impurities ([1]; target pH 3.6, 60° C. 2 wk): 0.62 | pH ([1]; target pH 3.6, 60° C. 4 wk): 3.64 | Impurities ([1]; target pH 3.6, 60° C. 4 wk): 0.99 | Assay ([1]; target pH 3.6, initial): 0.996 | pH ([1]; target pH 3.6, initial): 3.62 | Impurities ([1]; target pH 3.6, initial): 0.12

CCCNc1nc(NCCC)nc(N(C)OC)n1.O=S(=O)(O)O [XXXVI, N-(4,6-Bis-n-propylamino-[1,3,5]triazin-2-yl)-N,O-dimethyl-hydroxylamine hydrogen sulfate]
minute ventilation, hypoxic ventilatory response [2]: significantly potentiates the hypoxic ventilatory response
